Where a name gives a salt, the structure may show the parent alone. Read-outs that look alike come from different tables or passages of the source.
What was measured:
MOG-EAE [1] = experiment: Efficacy of DMF in chronic MOG-EAE (Example 1); format: in vivo, mouse
Description: See also, Schilling et al., “Fumaric Acid Esters Are Effective in Chronic Experimental Autoimmune Encephalomyelitis and Supress Macrophage Infiltration,” Clinical and Experimental Immunology, Vol. 145, No. 1, pp. 101-107 (2006).

MOG-EAE [2] = experiment: DMF/GA co-therapy during short term (acute) course of MOG-EAE (Examples 3 and 8); format: in vivo, mice; conditions: for macrophage/microglia in EAE lesions: day 26 p.i., FIG. 13; for Incidence: pooled data from three experiments
Experimental: The treatment groups were as follows:
1) Mice immunized with 200 μg MOG/CFA (complete Freund's adjuvant)+200 ng PTX (pertussis toxin)+vehicle (methocel).
2) Mice immunized with 200 μg MOG/CFA and 50 μg GA+vehicle.
In the acute disease phase (day 26 or day 18 p.i., respectively), parameters of inflammation as well as CNS tissue integrity were analyzed. To this end, 12 week wild-type or C57BL/6 mice were actively immunized with […] of MOG peptide 35-55 and pertussis toxin. On day 18 or 26 p.i., histochemistry was performed to identify T cells (CD3 immunohistochemistry), macrophages/microglia (Mac-3), demyelination (Luxol Fast Blue staining), and axonal loss (Bielschowsky silver impregnation). Histological changes were quantified by a blinded observer counting six visual fields on spinal cord cross sections comprising cervical, thoracic and lumbar spinal cord. Statistical evaluations were performed by Kruskal-Wallis test or t-test. ** p<0.01; *** p<0.001.

MOG-EAE [3] = experiment: DMF/GA co-therapy during chronic MOG-EAE (Example 3); format: in vivo, mice; conditions: for mean clinical EAE score during the chronic phase / onset of EAE symptoms: FIG. 4; for infiltration by T cells / number of infiltrating macrophages: chronic MOG-EAE; for infiltration by T cells: FIG. 7; for number of infiltrating macrophages: FIG. 8; for axonal loss and destruction: chronic phase, FIG. 9
Experimental: The treatment groups were as follows: 1) Mice immunized with 200 μg MOG/CFA (complete Freund's adjuvant)+200 ng PTX (pertussis toxin)+vehicle (methocel). 2) Mice immunized with 200 μg MOG/CFA and 50 μg GA+vehicle. […] Long term experiment: additional boost on day 28 p.i.

[4] = not given; remark: listed apart in the source
MOG-EAE [5] = experiment: DMF/IFN-beta co-therapy in MOG-EAE (Examples 4 and 8); format: in vivo, mice; conditions: DMF 15 mg/kg p.o.; for Incidence: FIG. 11, IFN-beta 10,000 U s.c. e.o.d; for mean clinical EAE score / clinical disease course: short-term course, IFN-beta 10,000 U s.c., FIG. 11, FIG. 15
MOG-EAE [6] = conditions: 100 or 500 mcg glatiramer acetate co-injected with MOG antigen; FIG. 3
Description: In this experiment mice were co-injected with glatiramer acetate and the MOG antigen. Specifically, a control group received MOG alone, while two experimental groups received doses of 100 or 500 mcg glatiramer acetate.

MOG-EAE [7] = conditions: in vivo; cited from earlier work
[8] = IFN-beta-1a study, healthy volunteers, DMF 240 mg tid
[9] = FIG. 4, single experiment, GA 50 μg, DMF 15 mg/kgBW
[10] = FIG. 5, pooled data from two experiments (n=12 per group)
[11] = GA study, healthy volunteers, DMF 240 mg tid

COC(=O)/C=C/C(=O)OC [DMF, Dimethyl fumarate]
mean clinical score (MOG-EAE [1]; DMF 15 mg/kg twice daily via oral gavage, FIG. 1): reduced
T-cell infiltration (MOG-EAE [1]; mouse, in vivo): without suppressing
efficacy in chronic MOG-EAE (MOG-EAE [1]; mouse, in vivo): effective
macrophage infiltration (MOG-EAE [1]; mouse, in vivo): suppress
demyelination (MOG-EAE [1]; spinal cord tissue, FIG. 2B): reduced
macrophage/microglia in EAE lesions (MOG-EAE [2]): reduction of macrophage/microglia
macrophage/microglia in EAE lesions (MOG-EAE [2]; listed as DMF alone): efficiently reduces
Incidence (MOG-EAE [2]; short term course): 11/18
mean clinical EAE score / clinical disease course (MOG-EAE [2]; short term course, FIG. 10A and 10B): greater than that of GA
most common adverse events (IFN-beta-1a study): flushing
new safety signals (IFN-beta-1a study): no new safety signals
Any AE [8]: 71%
Diarrhea [8]: 0%
Flushing [8]: 50%
Headache [8]: 13%
Nausea [8]: 4%
Paresthesia [8]: 21%
Pruritus [8]: 4%
Influenza-like illness (human, in vivo): 0%
Incidence (MOG-EAE [3]; [9]): 6/6
mean clinical EAE score during the chronic phase (MOG-EAE [3]; GA 50 μg, DMF 15 mg/kgBW): little if any effect
onset of EAE symptoms (MOG-EAE [3]; GA 50 μg, DMF 15 mg/kgBW): delayed
Incidence (MOG-EAE [3]; [10]): 9/12
infiltration by T cells (MOG-EAE [3]): neither GA nor DMF reduces
number of infiltrating macrophages (MOG-EAE [3]): neither GA nor DMF alone does so
axonal loss and destruction (MOG-EAE [3]): reduce axonal loss and destruction
most common adverse events ([4]; GA study): flushing
new safety signals ([4]; GA study): no new safety signals
Any AE [4, 11]: 84%
Diarrhea [4, 11]: 8%
Flushing [4, 11]: 76%
Headache [4, 11]: 12%
Nausea [4, 11]: 8%
Paresthesia [4, 11]: 32%
Pruritus [4, 11]: 28%
subjects discontinued due to adverse event ([4]; GA study, mild erythematous facial nodule (DMF alone), mild nausea (DMF+GA)): one
Influenza-like illness ([4]; human, in vivo): 0%
Incidence (MOG-EAE [5]): 6/6
mean clinical EAE score / clinical disease course (MOG-EAE [5]): exacerbated the EAE compared to the methocel controls

L-glutamic acid polymer with L-alanine, L-lysine and L-tyrosine, acetate (salt) [GA]
mean clinical score (MOG-EAE [6]): reduced the mean clinical score of the 100 or 500 mcg groups in a dose-dependent manner
Incidence (MOG-EAE [2]; short term course): 13/18
Incidence (MOG-EAE [3]; [9]): 6/6
mean clinical EAE score during the chronic phase (MOG-EAE [3]; GA 50 μg, DMF 15 mg/kgBW): intermediate effect
onset of EAE symptoms (MOG-EAE [3]; GA 50 μg, DMF 15 mg/kgBW): delayed
Incidence (MOG-EAE [3]; [10]): 11/12
infiltration by T cells (MOG-EAE [3]): neither GA nor DMF reduces
number of infiltrating macrophages (MOG-EAE [3]): neither GA nor DMF alone does so
infiltrates (inflammatory index, HE staining of spinal cords) (MOG-EAE [3]; chronic disease phase, FIG. 6): reduces infiltrates
axonal loss and destruction (MOG-EAE [3]): reduce axonal loss and destruction
prevention of clinical and histological signs of EAE in combination with atorvastatin (MOG-EAE [7]): synergize with atorvastatin

B1: IFN-beta: murine interferon beta, 10,000 U s.c. (protein, UniProt P01575 22-182, looked up)
Interferon beta: INYKQLQLQERTNIRKCQELLEQLNGKINLTYRADFKIPMEMTEKMQKSYTAFAIQEMLQNVFLVFRNNFSSTGWNETIVVRLLDELHQQTVFLKTVLEEKQEERLTWEMSSTALHLKSYYWRVQRYLKLMKYNSYAWMVVRAEIFRNFLIIRRLTRNFQN
Incidence (MOG-EAE [5]): 5/6
mean clinical EAE score / clinical disease course (MOG-EAE [5]): exacerbated the EAE compared to the methocel controls

Reference: patent publication US20180021288A1, “Neuroprotection in Demyelinating Diseases” (Biogen MA Inc., priority 2010, published 2018)
